From patent US5834500A, “Sulfur-containing heterocyclic bradykinin antagonists, process for their preparation, and their use” (Hoechst Aktiengesellschaft, priority 1996, dated 1998) come the findings set out here.

Experiment [1] deals with isolated guinea pig pulmonary artery. Put plainly: bradykinin-induced contraction of isolated guinea pig pulmonary artery. Particulars: Cavia porcellus, 10 min; isolated vessel strip, contraction by 2×10^-7 mol/l bradykinin, 10 minutes exposure; read-out: antagonistic effect expressed as IC50-value on the guinea pig pulmonary artery. How it is done: For testing the novel compounds on the isolated pulmonary artery, guinea pigs (Dunkin Hartley) having a weight of 400-450 g are killed by a blow to the neck.
The thorax is opened and the pulmonary artery is carefully dissected out. The surrounding tissue is carefully removed and the pulmonary artery is cut open spirally at an angle of 45°.
The blood vessel strip, which is 2.5 cm long and 3-4 mm wide, is fastened in a 10 ml-capacity organ bath which is filled with Ringer solution. […]
95% O2 and 5% CO2 is bubbled through the solution, which is warmed to 37° C. The pH is 7.4 and the initial load on the vessel strip is 1.0 g.
The isotonic contraction changes are detected with a lever attachment and a high frequency modem (distance measuring device) from Hugo Sachs and registered on a potentiometric recorder (BEC, Goerz Metrawatt SE 460).
The experiment is started after 1 hour of equilibration. Once the maximum sensitivity of the vessel strips to 2×10^-7 mol/l bradykinin has been reached--bradykinin causes the vessel strips to contract--the test compounds, at doses of 5×10^-8 -1×10^-5 mol/l, are allowed to exert their effect for 10 minutes in each case and, after bradykinin has been added once again, the decrease in the effect of bradykinin is compared with the control.

The target of the next experiment is T1, bradykinin B2 receptor (Cavia porcellus, UniProt O70526).
T1 construct: from tissue; host or cells: guinea pig ileum membranes
T1 sequence (O70526 1-372): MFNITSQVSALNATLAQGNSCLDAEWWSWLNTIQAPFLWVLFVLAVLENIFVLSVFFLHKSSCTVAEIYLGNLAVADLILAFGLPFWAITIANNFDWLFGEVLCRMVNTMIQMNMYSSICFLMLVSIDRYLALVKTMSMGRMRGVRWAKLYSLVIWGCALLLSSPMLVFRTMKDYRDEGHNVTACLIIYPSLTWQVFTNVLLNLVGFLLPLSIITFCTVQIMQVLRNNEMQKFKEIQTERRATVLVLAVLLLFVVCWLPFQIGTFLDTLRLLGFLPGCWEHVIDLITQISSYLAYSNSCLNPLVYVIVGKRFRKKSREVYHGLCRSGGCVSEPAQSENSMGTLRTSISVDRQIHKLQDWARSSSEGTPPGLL
Briefly: binding to the bradykinin B2 receptor of guinea pig ileum (3H-bradykinin competition). Particulars: guinea pig ileum membranes, 3H-bradykinin 0.25 to 0.3 nmol/l; read-out: antagonistic effect expressed as IC50-value on the guinea pig B2 receptor. How it is done: The method of measuring binding to the bradykinin B2 receptor of guinea pig ileum is described below (R. B. Innis et al., Proc. NatI. Acad. Sci. USA; 17 (1981) 2630): […] Ligand: ^3 H-BRADYKININ (from NEN Du Pont) 2. Buffer mixtures: a) TES buffer: 25 mM TES (SIGMA, Cat. No.: T-4152) […] Cat. No.: P-9375) b) Incubation buffer: 25 mM TES (SIGMA; Cat. No.: T-4152) […] Cat. No.: P-9375) […] Cat. No.: A-7906) 140 μg/ml bacitracin (SIGMA; Cat. No.: B-0125) […] Cat. No.: D-0632) […] Both buffers are adjusted to pH 6.8 with 5 molar NaOH. 3. Membrane preparation: Guinea pig ilea are roughly freed of intestinal contents by carefully smoothing them out and are cleansed in 0.9% NaCl solution. The approx. 2 cm-long ilea pieces are transferred into ice-cold TES buffer (approx. 1 g/10 ml) and homogenized with an Ultraturrax for approx. 30 sec. in an ice bath. The homogenate is then filtered through 3 layers of gauze and the filtrate is centrifuged at 50,000 g for 10 minutes. The supernatant is discarded and the pellet is rehomogenized in the same volume of TES buffer and centrifuged once again at 50,000 g for 10 minutes. The pellet is rehomogenized in incubation buffer (approx. 1 g/5 ml) and frozen down at -70° C., in 2 ml aliquots, in cryotubes. The protein concentration of the finished membrane suspension is determined by the LOWRY method and should be approx. 15 μg/100 μl. 4. Binding test: All the incubations are carried out, at room temperature for 60 minutes, in a 200 μl volume on microtiter plates (96×300 μl). All the mixtures are in incubation buffer. For this, 50 μl of the radioligand, 50 μl of the preparation to be tested and 100 μl of the membrane suspension are pipetted consecutively into the wells of the microtiter plate. b) Competition experiments (IC50): A fixed quantity of the radioactive ligand (from 0.25 to 0.3 nmol/l ^3 H-bradykinin) and different concentrations of the unlabeled agonists or antagonists are employed for this purpose. 50 μl of the preparations or the standards to be tested, are added, in concentrations of from 10^-5 to 10^-10 mol/l, to in each case 50 μl of the ^3 H-bradykinin solution and the reaction is started by adding 100 μl of membrane suspension. […] As a rule, the preparations which are to be tested for competition are dissolved, at a concentration of 1 mmol/l, in dimethyl sulfoxide (DMSO) and subsequently subjected to further dilution with DMSO. This solution is then diluted 1:25 with incubation buffer. […] The filters, which are still moist, are punched out into mini scintillation vials, which are filled with 3 ml of scintillator. After having been left to soak for approx. 12 hours, the samples are shaken up briefly and measured in a beta counter. c) Screening: […] 4. Evaluation: The evaluation is effected by means of the LIGAND program package (McPherrson, Minson & Rodbard, Marketing: Elsevier-BIOSOFT), which performs the necessary calculations for determining IC50 and Ki values. This program also performs graphic depictions of the saturation and displacement curves and also SCATCHARD plots, HILL plots or HOFSTEE plots.

Turning to `COc1cccc(/C=C/C(=O)NCC(=O)N(C)c2ccc(Cl)c(COc3cccc4sc(C)nc34)c2Cl)c1` [Example 11], the IC50 in experiment [1] is below 1000 nM; on bradykinin B2 receptor it was below 100 nM.
As for `Cc1nc2c(OCc3c(Cl)ccc(N(C)C(=O)CNC(=O)/C=C/c4ccc(C(F)(F)F)cc4)c3Cl)cccc2s1` [Example 3], the IC50 in experiment [1] was below 1000 nM; at bradykinin B2 receptor, below 100 nM.
Consider `C=C/C=C/C(=O)NCC(=O)N(C)c1ccc(Cl)c(COc2cccc3sc(C)nc23)c1Cl` [Example 6], for which the IC50 in experiment [1] is below 1000 nM; on bradykinin B2 receptor it was below 100 nM.
As to `Cc1nc2c(OCc3c(Cl)ccc(N(C)C(=O)CNC(=O)COc4ccc(OC(F)(F)F)cc4)c3Cl)cccc2s1` [Example 37], the IC50 in experiment [1] is below 1000 nM; at bradykinin B2 receptor, below 100 nM.
On to `Cc1nc2c(OCc3c(Cl)ccc(N(C)C(=O)CNC(=O)/C=C/c4ccco4)c3Cl)cccc2s1` [Example 12], for which the IC50 in experiment [1] is below 1000 nM; on bradykinin B2 receptor it was below 100 nM.
For `Cc1ccc(/C=C/C(=O)NCC(=O)N(C)c2ccc(Cl)c(COc3cccc4sc(C)nc34)c2Cl)cc1` [Example 23], the IC50 in experiment [1] was below 1000 nM; at bradykinin B2 receptor, below 100 nM.
